Here are results for 14 compounds from ChEMBL document CHEMBL2311280, “Protein tyrosine phosphatase 1B inhibitory effect by dammarane-type triterpenes from hydrolyzate of total Gynostemma pentaphyllum saponins” (Bioorg Med Chem Lett, 2013).

Structures are written as SMILES.

This assay addresses T1, Tyrosine-protein phosphatase non-receptor type 1 (Homo sapiens, UniProt P18031).
T1 sequence (P18031 whole entry): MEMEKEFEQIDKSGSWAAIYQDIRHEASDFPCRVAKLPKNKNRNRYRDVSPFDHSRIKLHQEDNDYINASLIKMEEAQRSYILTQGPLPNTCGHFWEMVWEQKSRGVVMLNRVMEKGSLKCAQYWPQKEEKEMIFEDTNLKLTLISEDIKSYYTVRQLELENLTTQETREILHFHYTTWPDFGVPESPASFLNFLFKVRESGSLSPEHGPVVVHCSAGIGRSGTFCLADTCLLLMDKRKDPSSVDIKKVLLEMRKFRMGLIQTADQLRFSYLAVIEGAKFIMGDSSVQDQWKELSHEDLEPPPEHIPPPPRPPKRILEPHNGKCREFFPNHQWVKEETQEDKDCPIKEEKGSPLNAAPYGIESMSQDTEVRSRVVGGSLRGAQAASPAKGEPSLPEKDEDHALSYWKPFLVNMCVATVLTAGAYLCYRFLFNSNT
In words: Inhibition of PTP1B (unknown origin).
Usually IC50 stands for the concentration needed to halve the response being measured. Read a low IC50 as inhibition by little substance. The compound `CC(C)=CCC[C@@](O)(CO)[C@H]1CC[C@]2(C)[C@@H]1CC[C@@H]1[C@@]3(C)CC[C@H](O)C(C)(C)[C@@H]3CC[C@]12C` came in with an IC50 of 15.2 µM.
The result for `C/C(=C/CCC(C)(C)O)[C@H]1CC[C@]2(C)[C@@H]1[C@H](O)C[C@@H]1[C@@]3(C)CC[C@H](O)C(C)(C)[C@@H]3CC[C@]12C` reads over 50 µM; that for `C=C(C)CCC[C@](C)(O)[C@H]1CC[C@]2(C)[C@@H]1[C@H](O)C[C@@H]1[C@@]3(C)CC[C@H](O)C(C)(C)[C@@H]3CC[C@]12C`, over 50 µM; that for `C=C(C)[C@@H](O)CC[C@](C)(O)[C@H]1CC[C@]2(C)[C@@H]1[C@H](O)C[C@@H]1[C@@]3(C)CC[C@H](O)C(C)(C)[C@@H]3CC[C@]12C`, over 50 µM.
Then `CC(C)=C[C@@H]1C[C@](O)([C@H]2CC[C@]3(C)[C@@H]2CC[C@@H]2[C@@]4(C)CC[C@H](O)C(C)(C)[C@@H]4CC[C@]23C)C(=O)O1`, with 27.8 µM.
Then `CC(C)=C[C@H]1C[C@@](O)([C@H]2CC[C@]3(C)[C@@H]2CC[C@@H]2[C@@]4(C)CC[C@H](O)C(C)(C)[C@@H]4CC[C@]23C)C(=O)O1`, with 8.4 µM; and `CC1(C)[C@@H](O)CC[C@]2(C)[C@H]3CC[C@@H]4[C@@H](C(=O)O)CC[C@@]4(C)[C@]3(C)CC[C@@H]12`, with 13.1 µM; and `CC(C)=CCC[C@](C)(O)[C@H]1CC[C@]2(C)[C@@H]1[C@H](O)C[C@@H]1[C@@]3(C)CC[C@H](O)C(C)(C)[C@@H]3CC[C@]12C`, with 23.6 µM.
The compound `CC(C)=C1CC([C@H]2CC[C@]3(C)[C@@H]2CC[C@@H]2C4=C(CC[C@]23C)C(C)(C)[C@@H]2CC[C@H]4O2)=CC1=O` [GYPENSAPOGENIN B] registered an IC50 of 24.5 µM.
The result for `CC(C)=C1CC=C([C@H]2CC[C@]3(C)[C@@H]2CC[C@@H]2[C@@]4(C)CC[C@H](O)C(C)(C)[C@@H]4CC[C@]23C)C1=O` [GYPENSAPOGENIN C] reads over 50 µM; that for `CC(C)=C[C@H]1C=C([C@H]2CC[C@]3(C)[C@@H]2CC[C@@H]2[C@@]4(C)CC[C@H](O)C(C)(C)[C@@H]4CC[C@]23C)C(=O)O1` [GYPENSAPOGENIN D], over 50 µM.
Regarding `CC(C)(O)C[C@H]1C=C([C@H]2CC[C@]3(C)[C@@H]2CC[C@@H]2[C@@]4(C)CC[C@H](O)C(C)(C)[C@@H]4CC[C@]23C)C(=O)O1` [GYPENSAPOGENIN E], the IC50 turned out to be 23 µM.
Then `CC(C)(O)C[C@@H]1C=C([C@H]2CC[C@]3(C)[C@@H]2CC[C@@H]2[C@@]4(C)CC[C@H](O)C(C)(C)[C@@H]4CC[C@]23C)C(=O)O1` [GYPENSAPOGENIN F], with 49 µM.
`CC(=O)O[C@H]1CC[C@]2(C)[C@H]3CC[C@@H]4[C@@H](C5=C[C@H](CC(C)(C)O)OC5=O)CC[C@@]4(C)[C@]3(C)CC[C@H]2C1(C)C` [GYPENSAPOGENIN G] had a half-inhibitory concentration (IC50) of 24.5 µM. Compared with the last compound, the IC50 is about 2-fold lower.
